Data from patent publication US9944602B2, “Piperidinone herbicides” (E. I. DU PONT DE NEMOURS AND COMPANY, priority 2014, dated 2018).

Key:
Assay type in all cases: in vivo
[1] = tested on: barnyardgrass (Echinochloa crus-galli); experiment: Test A preemergence barnyardgrass; conditions: Echinochloa crus-galli, pre-emergence, 240 h, 0 to 100 scale, 0 no effect, 100 complete control, read-out: Barnyardgrass plant response rating; for pest or weed control at 125 g/ha: 125 g ai/ha; for pest or weed control at 500 g/ha: 500 g ai/ha
Outline: (§1)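 Seeds sown in loam–sand blend received a directed preemergence soil spray; postemergence plants (2–10 cm, one- to two-leaf stage) were sprayed in the same soil. Chemicals were formulated in non-phytotoxic solvent with surfactant. After ~10 d in greenhouse, injury was rated visually against untreated controls, 0 (no effect) to 100 (complete control).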

kochia (Kochia scoparia) [2] = experiment: Test A preemergence kochia; conditions: Bassia scoparia, pre-emergence, 240 h, 0 to 100 scale, 0 no effect, 100 complete control, read-out: Kochia plant response rating; for pest or weed control at 125 g/ha: 125 g ai/ha; for pest or weed control at 500 g/ha: 500 g ai/ha
Outline: as §1

[3] = tested on: ragweed (common ragweed, Ambrosia elatior); experiment: Test A preemergence ragweed; conditions: Ambrosia artemisiifolia, pre-emergence, 240 h, 0 to 100 scale, 0 no effect, 100 complete control, read-out: Ragweed plant response rating; for pest or weed control at 125 g/ha: 125 g ai/ha; for pest or weed control at 500 g/ha: 500 g ai/ha
Outline: as §1

[4] = tested on: ryegrass, Italian (Italian ryegrass, Lolium multiflorum); experiment: Test A preemergence ryegrass, Italian; conditions: Lolium multiflorum, pre-emergence, 240 h, 0 to 100 scale, 0 no effect, 100 complete control, read-out: Ryegrass, Italian plant response rating; for pest or weed control at 125 g/ha: 125 g ai/ha; for pest or weed control at 500 g/ha: 500 g ai/ha
Outline: as §1

[5] = tested on: foxtail, giant (giant foxtail, Setaria faberii); experiment: Test A preemergence foxtail, giant; conditions: Setaria faberi, pre-emergence, 240 h, 0 to 100 scale, 0 no effect, 100 complete control, read-out: Foxtail, Giant plant response rating; for pest or weed control at 125 g/ha: 125 g ai/ha; for pest or weed control at 500 g/ha: 500 g ai/ha
Outline: as §1

[6] = tested on: pigweed (Amaranthus retroflexus); experiment: Test A preemergence pigweed; conditions: Amaranthus retroflexus, pre-emergence, 240 h, 0 to 100 scale, 0 no effect, 100 complete control, read-out: Pigweed plant response rating; for pest or weed control at 125 g/ha: 125 g ai/ha; for pest or weed control at 500 g/ha: 500 g ai/ha
Outline: as §1

[7] = tested on: barnyardgrass (Echinochloa crus-galli); experiment: Test A postemergence barnyardgrass; conditions: Echinochloa crus-galli, post-emergence, 240 h, 0 to 100 scale, 0 is no effect, 100 is complete control, read-out: Plant response rating, Barnyardgrass; for pest or weed control at 125 g/ha: 125 g ai/ha; for pest or weed control at 500 g/ha: 500 g ai/ha
Outline: as §1

kochia (Kochia scoparia) [8] = experiment: Test A postemergence kochia; conditions: Bassia scoparia, post-emergence, 240 h, 0 to 100 scale, 0 is no effect, 100 is complete control, read-out: Plant response rating, Kochia; for pest or weed control at 125 g/ha: 125 g ai/ha; for pest or weed control at 500 g/ha: 500 g ai/ha
Outline: as §1

[9] = tested on: ragweed (common ragweed, Ambrosia elatior); experiment: Test A postemergence ragweed; conditions: Ambrosia artemisiifolia, post-emergence, 240 h, 0 to 100 scale, 0 is no effect, 100 is complete control, read-out: Plant response rating, Ragweed; for pest or weed control at 125 g/ha: 125 g ai/ha; for pest or weed control at 500 g/ha: 500 g ai/ha
Outline: as §1

[10] = tested on: ryegrass, Italian (Italian ryegrass, Lolium multiflorum); experiment: Test A postemergence ryegrass, Italian; conditions: Lolium multiflorum, post-emergence, 240 h, 0 to 100 scale, 0 is no effect, 100 is complete control, read-out: Plant response rating, Ryegrass, Italian; for pest or weed control at 125 g/ha: 125 g ai/ha; for pest or weed control at 500 g/ha: 500 g ai/ha
Outline: as §1

[11] = tested on: foxtail, giant (giant foxtail, Setaria faberii); experiment: Test A postemergence foxtail, giant; conditions: Setaria faberi, post-emergence, 240 h, 0 to 100 scale, 0 is no effect, 100 is complete control, read-out: Plant response rating, Foxtail, Giant; for pest or weed control at 125 g/ha: 125 g ai/ha; for pest or weed control at 500 g/ha: 500 g ai/ha
Outline: as §1

[12] = tested on: pigweed (Amaranthus retroflexus); experiment: Test A postemergence pigweed; conditions: Amaranthus retroflexus, post-emergence, 240 h, 0 to 100 scale, 0 is no effect, 100 is complete control, read-out: Plant response rating, Pigweed; for pest or weed control at 125 g/ha: 125 g ai/ha; for pest or weed control at 500 g/ha: 500 g ai/ha
Outline: as §1

[13] = tested on: wheat (Triticum aestivum); experiment: Test A postemergence wheat; conditions: Triticum aestivum, post-emergence, 240 h, 0 to 100 scale, 0 is no effect, 100 is complete control, read-out: Plant response rating, Wheat; for plant injury at 125 g/ha: 125 g ai/ha; for plant injury at 500 g/ha: 500 g ai/ha
Outline: as §1

corn (Zea mays) = experiment: Test A postemergence corn; conditions: Zea mays, post-emergence, 240 h, 0 to 100 scale, 0 is no effect, 100 is complete control; for Corn plant response rating (crop injury, 0 = no effect, 100 = complete kill) at 125 g/ha: 125 g ai/ha; for Corn plant response rating (crop injury, 0 = no effect, 100 = complete kill) at 500 g/ha: 500 g ai/ha
Outline: as §1

[14] = tested on: blackgrass (Alopecurus myosuroides); experiment: Test A postemergence blackgrass; conditions: Alopecurus myosuroides, post-emergence, 240 h, 0 to 100 scale, 0 is no effect, 100 is complete control, read-out: Plant response rating, Blackgrass; for pest or weed control at 125 g/ha: 125 g ai/ha; for pest or weed control at 500 g/ha: 500 g ai/ha
Outline: as §1

[15] = tested on: galium (catchweed bedstraw, Galium aparine); experiment: Test A postemergence galium; conditions: Galium, post-emergence, 240 h, 0 to 100 scale, 0 is no effect, 100 is complete control, read-out: Plant response rating, Galium; for pest or weed control at 125 g/ha: 125 g ai/ha; for pest or weed control at 500 g/ha: 500 g ai/ha
Outline: as §1

rice (Oryza sativa) = experiment: Test B flooded paddy test rice; conditions: Oryza sativa, Table B, Flood, 250 g ai/ha, scale 0 to 100, read-out: Plant response rating
Outline: (§2)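 Visual injury relative to controls was scored after 13 to 15 d in the greenhouse. Treatment was by adding compound straight to flood water 3 cm deep, maintained for the whole test, on plants at the 2-leaf stage.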

[16] = tested on: sedge, umbrella (small-flower umbrella sedge, Cyperus difformis); experiment: Test B flooded paddy test sedge, umbrella; conditions: Cyperus difformis, Table B, Flood, 250 g ai/ha, scale 0 to 100, read-out: Plant response rating
Outline: as §2

[17] = tested on: ducksalad (Heteranthera limosa); experiment: Test B flooded paddy test ducksalad; conditions: Heteranthera limosa, Table B, Flood, 250 g ai/ha, scale 0 to 100, read-out: Plant response rating
Outline: as §2

[18] = tested on: barnyardgrass (Echinochloa crus-galli); experiment: Test B flooded paddy test barnyardgrass; conditions: Echinochloa crus-galli, Table B, Flood, 250 g ai/ha, scale 0 to 100, read-out: Plant response rating
Outline: as §2

Question: Which pest or weed control at 125 g/ha [1] does the source give for `O=C1NCC[C@H](c2cccc(C(F)(F)F)c2)[C@H]1C(=O)Nc1cccc(F)c1F` [Compound 21, (3R,4S)—N-(2,3-difluorophenyl)-2-oxo-4-[3-(trifluoromethyl)phenyl]-3-piperidinecarboxamide] here?
Answer: 90%

Question: And the pest or weed control at 500 g/ha [1]?
Answer: 90%

Question: What about the pest or weed control at 125 g/ha (kochia (Kochia scoparia) [2]) of the same compound?
Answer: 0%

Question: And the pest or weed control at 500 g/ha (kochia (Kochia scoparia) [2])?
Answer: 0%

Question: What about the pest or weed control at 125 g/ha [3] of the same compound?
Answer: 0%

Question: And the pest or weed control at 500 g/ha [3]?
Answer: 0%

Question: What about the pest or weed control at 125 g/ha [4] of the same compound?
Answer: 0%

Question: What about the pest or weed control at 500 g/ha [4] of the same compound?
Answer: 60%

Question: And the pest or weed control at 125 g/ha [5]?
Answer: 90%

Question: And the pest or weed control at 500 g/ha [5]?
Answer: 90%

Question: What about the pest or weed control at 125 g/ha [6] of the same compound?
Answer: 0%

Question: What about the pest or weed control at 500 g/ha [6] of the same compound?
Answer: 0%

Question: What about the pest or weed control at 125 g/ha [7] of the same compound?
Answer: 90%

Question: And the pest or weed control at 500 g/ha [7]?
Answer: 90%

Question: And the pest or weed control at 125 g/ha (kochia (Kochia scoparia) [8])?
Answer: 0%

Question: What about the pest or weed control at 500 g/ha (kochia (Kochia scoparia) [8]) of the same compound?
Answer: 0%

Question: What about the pest or weed control at 125 g/ha [9] of the same compound?
Answer: 0%

Question: What about the pest or weed control at 500 g/ha [9] of the same compound?
Answer: 0%

Question: What about the pest or weed control at 125 g/ha [10] of the same compound?
Answer: 30%

Question: What about the pest or weed control at 500 g/ha [10] of the same compound?
Answer: 40%

Question: What about the pest or weed control at 125 g/ha [11] of the same compound?
Answer: 80%

Question: What about the pest or weed control at 500 g/ha [11] of the same compound?
Answer: 80%

Question: What about the pest or weed control at 125 g/ha [12] of the same compound?
Answer: 0%

Question: What about the pest or weed control at 500 g/ha [12] of the same compound?
Answer: 20%

Question: And the plant injury at 125 g/ha [13]?
Answer: 0%

Question: What about the plant injury at 500 g/ha [13] of the same compound?
Answer: 60%

Question: And the Corn plant response rating (crop injury, 0 = no effect, 100 = complete kill) at 125 g/ha (corn (Zea mays))?
Answer: 50%

Question: What about the Corn plant response rating (crop injury, 0 = no effect, 100 = complete kill) at 500 g/ha (corn (Zea mays)) of the same compound?
Answer: 80%

Question: What about the pest or weed control at 125 g/ha [14] of the same compound?
Answer: 60%

Question: And the pest or weed control at 500 g/ha [14]?
Answer: 80%

Question: What about the pest or weed control at 125 g/ha [15] of the same compound?
Answer: 0%

Question: What about the pest or weed control at 500 g/ha [15] of the same compound?
Answer: 20%

Question: What about the plant injury at 250 g/ha (rice (Oryza sativa)) of the same compound?
Answer: 10%

Question: And the pest or weed control at 250 g/ha [16]?
Answer: 0%

Question: What about the pest or weed control at 250 g/ha [17] of the same compound?
Answer: 100%

Question: What about the pest or weed control at 250 g/ha [18] of the same compound?
Answer: 75%

Question: What does the source list for `O=C1NCC[C@H](c2cccc(C(F)(F)F)c2)[C@H]1C(=O)Nc1cccc(Cl)c1F` [Compound 25, (3R,4S)—N-(3-chloro-2-fluorophenyl)-2-oxo-4-[3-(trifluoromethyl)phenyl]-3-piperidinecarboxamide]?
Answer: pest or weed control at 125 g/ha [1]: 90%; pest or weed control at 500 g/ha [1]: 90%; pest or weed control at 125 g/ha (kochia (Kochia scoparia) [2]): 0%; pest or weed control at 500 g/ha (kochia (Kochia scoparia) [2]): 0%; pest or weed control at 125 g/ha [3]: 0%; pest or weed control at 500 g/ha [3]: 0%; pest or weed control at 125 g/ha [4]: 0%; pest or weed control at 500 g/ha [4]: 50%; pest or weed control at 125 g/ha [5]: 90%; pest or weed control at 500 g/ha [5]: 90%; pest or weed control at 125 g/ha [6]: 0%; pest or weed control at 500 g/ha [6]: 0%; pest or weed control at 125 g/ha [7]: 80%; pest or weed control at 500 g/ha [7]: 80%; pest or weed control at 125 g/ha (kochia (Kochia scoparia) [8]): 0%; pest or weed control at 500 g/ha (kochia (Kochia scoparia) [8]): 0%; pest or weed control at 125 g/ha [9]: 0%; pest or weed control at 500 g/ha [9]: 0%; pest or weed control at 125 g/ha [10]: 30%; pest or weed control at 500 g/ha [10]: 40%; pest or weed control at 125 g/ha [11]: 80%; pest or weed control at 500 g/ha [11]: 80%; pest or weed control at 125 g/ha [12]: 0%; pest or weed control at 500 g/ha [12]: 0%; plant injury at 125 g/ha [13]: 40%; plant injury at 500 g/ha [13]: 60%; Corn plant response rating (crop injury, 0 = no effect, 100 = complete kill) at 125 g/ha (corn (Zea mays)): 20%; Corn plant response rating (crop injury, 0 = no effect, 100 = complete kill) at 500 g/ha (corn (Zea mays)): 70%; pest or weed control at 125 g/ha [14]: 60%; pest or weed control at 500 g/ha [14]: 80%; pest or weed control at 125 g/ha [15]: 30%; pest or weed control at 500 g/ha [15]: 30%; plant injury at 250 g/ha (rice (Oryza sativa)): 0%; pest or weed control at 250 g/ha [16]: 0%; pest or weed control at 250 g/ha [17]: 45%; pest or weed control at 250 g/ha [18]: 60%
